The source of these data is patent publication US11246898B2 (priority 2017, dated 2022).

The subject of data set [1] is Ebola virus/Zaire. In kind it is cell-based.
Data set [2] relates to CellTiter96 (MTS) cells.
A short description of data set [3]: in vitro. The settings on record: African green monkey.
Data set [4] has as its system Ebola virus/Zaire. Nature of the data set: microbe, parasite or virus in culture. The format is cell-based. The settings on record: Zaire ebolavirus.

Like-named read-outs stand apart in the source and are kept apart here.

One may read the EC50 as the concentration that produces a half-maximal response. Broadly, the EC90 is the point of the concentration-response curve where the effect stands at 90%. In data set [1], Allophycocyanin showed an EC50 of 1.77 µg/mL and a 90% effect concentration (EC90) above 400 µg/mL. In data set [2], the CC50 was above 400 µg/mL.
For `NC(=O)c1nc(F)c[nH]c1=O` [Favipiravir], in data set [3], the CC50 is above 1000 µM. In data set [4], this compound had a half-maximal effective concentration (EC50) of 96 µM.
